Values of other authors in paper PMC6727202 (Molecular pharmaceutics, 2019).

Tested on: kidney

In the case of `NCCCC[C@H](N)C(=O)O` [lysine], the “Reduction of kidney uptake of radiolabeled octreotide” value (lysine) is given as ~ 35% and the “Reduction of renal uptake of radiolabeled octreotide” value (oral or intravenous administration of lysine) is given as “up to 40%”.
